Laboratory results published in PubChem BioAssay (NCI).
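The compound was tested at five concentrations on cells cultured in 96-well plates, with a 48-hour exposure period. GI50 marks 50% less growth. Definition used: TGI = concentration required for complete inhibition of growth.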

Assays:
Assay in all cases: NCI anticancer screen, dose series, 48 h
[1] = test system: KM12 colon
[2] = test system: OVCAR-4 ovarian
[3] = test system: OVCAR-5 ovarian
[4] = test system: OVCAR-8 ovarian
[5] = test system: PC-3 prostate
[6] = test system: LOX IMVI melanoma
[7] = test system: SNB-19 CNS
[8] = test system: UACC-62 melanoma
[9] = test system: MALME-3M melanoma
[10] = test system: K-562 leukemia
[11] = test system: CCRF-CEM leukemia
[12] = test system: SF-539 CNS
[13] = test system: M14 melanoma
[14] = test system: EKVX NSCLC
[15] = test system: SN12C renal
[16] = test system: HOP-62 NSCLC
[17] = test system: BT-549 breast
[18] = test system: UO-31 renal
[19] = test system: MOLT-4 leukemia
[20] = test system: HOP-92 NSCLC
[21] = test system: HCT-116 colon
[22] = test system: MDA-MB-435
[23] = test system: SF-295 CNS
[24] = test system: SF-268 CNS
[25] = test system: T-47D breast
[26] = test system: SK-MEL-2 melanoma
[27] = test system: COLO 205 colon
[28] = test system: HL-60(TB) leukemia
[29] = test system: A498 renal
[30] = test system: RXF 393 renal
[31] = test system: ACHN renal
[32] = test system: NCI-H522 lung
[33] = test system: NCI-H460 lung
[34] = test system: SK-MEL-28 melanoma
[35] = test system: CAKI-1 renal
[36] = test system: UACC-257 melanoma
[37] = test system: U251 CNS
[38] = test system: HCT-15 colon
[39] = test system: HCC-2998 colon
[40] = test system: DU-145 prostate
[41] = test system: NCI/ADR-RES ovarian
[42] = test system: MDA-MB-231 breast
[43] = test system: SK-OV-3 ovarian
[44] = test system: MCF7 breast
[45] = test system: RPMI-8226 leukemia
[46] = test system: SR leukemia
[47] = test system: TK-10 renal
[48] = test system: OVCAR-3 ovarian
[49] = test system: NCI-H226 lung
[50] = test system: HT29 colon
[51] = test system: SNB-75 CNS
[52] = test system: SK-MEL-5 melanoma
[53] = test system: 786-0 renal
[54] = test system: HS 578T breast
[55] = test system: IGROV1 ovarian
[56] = test system: SW-620 colon

`c1ccc2c(NCCCn3ccnc3)c3oc4ccccc4c3nc2c1` was tested, and the GI50 [1] was 2.51 µM, the TGI [1] was > 100 µM and the GI50 [2] was 2.12 µM. It also gave a TGI [2] of 7.47 µM, a GI50 [3] of 1.99 µM and a TGI [3] of 6.54 µM. It also gave a GI50 [4] of 1.58 µM, a TGI [4] of 4.55 µM and a GI50 [5] of 2.08 µM. For the same molecule, the TGI [5] was 6.85 µM, the GI50 [6] was 1.35 µM and the TGI [6] was 3.3 µM. For the same molecule, the GI50 [7] was 2.6 µM, the TGI [7] was 14.2 µM and the GI50 [8] was 2.01 µM. For the same molecule, the TGI [8] was 4.62 µM, the GI50 [9] was 2.66 µM and the TGI [9] was 6.23 µM. The GI50 [10] was 1.81 µM, the TGI [10] was > 100 µM and the GI50 [11] was 2.35 µM. For the same molecule, the TGI [11] was 18 µM, the GI50 [12] was 1.71 µM and the TGI [12] was 3.94 µM. The GI50 [13] was 1.89 µM, the TGI [13] was 3.56 µM and the GI50 [14] was 2.8 µM. The TGI [14] was 11 µM, the GI50 [15] was 1.7 µM and the TGI [15] was 11 µM. The GI50 [16] was 1.59 µM, the TGI [16] was 4.3 µM and the GI50 [17] was 1.98 µM. It also gave a TGI [17] of 4.75 µM, a GI50 [18] of 1.42 µM and a TGI [18] of 3.28 µM. It also gave a GI50 [19] of 0.524 µM, a TGI [19] of 71.8 µM and a GI50 [20] of 1.11 µM. The TGI [20] was 3.68 µM, the GI50 [21] was 0.518 µM and the TGI [21] was 10.3 µM. The GI50 [22] was 2.13 µM, the TGI [22] was 5.2 µM and the GI50 [23] was 2.53 µM. The TGI [23] was 10.5 µM, the GI50 [24] was 2.2 µM and the TGI [24] was 12.1 µM. The GI50 [25] was 2.31 µM, the TGI [25] was 8.53 µM and the GI50 [26] was 1.85 µM. For the same molecule, the TGI [26] was 3.6 µM, the GI50 [27] was 1.42 µM and the TGI [27] was 3.04 µM. The GI50 [28] was 2.5 µM, the TGI [28] was 7.72 µM and the GI50 [29] was 2.89 µM. It also gave a TGI [29] of 9.13 µM, a GI50 [30] of 1.41 µM and a TGI [30] of 3.23 µM. The GI50 [31] was 0.942 µM, the TGI [31] was 10.5 µM and the GI50 [32] was 1.58 µM. The TGI [32] was 3.63 µM, the GI50 [33] was 1.27 µM and the TGI [33] was 8.27 µM. For the same molecule, the GI50 [34] was 2.15 µM, the TGI [34] was 4.32 µM and the GI50 [35] was 1.7 µM. For the same molecule, the TGI [35] was 6.56 µM, the GI50 [36] was 2.35 µM and the TGI [36] was 6 µM. For the same molecule, the GI50 [37] was 2.33 µM, the TGI [37] was 10.3 µM and the GI50 [38] was 1.79 µM. It also gave a TGI [38] of 10.6 µM, a GI50 [39] of 1.36 µM and a TGI [39] of 2.99 µM. For the same molecule, the GI50 [40] was 2.63 µM, the TGI [40] was 15.5 µM and the GI50 [41] was 1.87 µM. For the same molecule, the TGI [41] was 6.18 µM, the GI50 [42] was 2.04 µM and the TGI [42] was 7.73 µM. For the same molecule, the GI50 [43] was 2.3 µM, the TGI [43] was 6.85 µM and the GI50 [44] was 1.78 µM. It also gave a TGI [44] of 7.62 µM, a GI50 [45] of 2.04 µM and a TGI [45] of 5.62 µM. For the same molecule, the GI50 [46] was 1.73 µM, the TGI [46] was > 100 µM and the GI50 [47] was 3.29 µM. The TGI [47] was 8.62 µM, the GI50 [48] was 3.38 µM and the TGI [48] was > 100 µM. For the same molecule, the GI50 [49] was 1.94 µM, the TGI [49] was 4.7 µM and the GI50 [50] was 1.05 µM. The TGI [50] was 3.08 µM, the GI50 [51] was 1.85 µM and the TGI [51] was 4.93 µM. The GI50 [52] was 2.27 µM, the TGI [52] was 5.14 µM and the GI50 [53] was 2.57 µM. It also gave a TGI [53] of 13.2 µM, a GI50 [54] of 2.79 µM and a TGI [54] of 14 µM. For the same molecule, the GI50 [55] was 2.82 µM, the TGI [55] was 10.8 µM and the GI50 [56] was 0.792 µM. The TGI [56] was 10.9 µM.
